Measurements taken from PubChem BioAssay (NCI).
Several values for one entry are separate records, joined by “and”; a condition that tells them apart may be missing. Identical values can stand only once.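 96-well plates; 48 h exposure; 5 concentrations. Endpoints by linear interpolation between flanking doses. Not reached: highest tested concentration assigned. Abbreviation: GI50, concentration required for 50% inhibition of growth. Definition used: TGI = concentration required for complete inhibition of growth.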

What was measured:
Experiment in all cases: NCI tumour cell line growth inhibition, 48 h
786-0 renal = system: 786-0 renal
A498 renal = system: A498 renal
A549 NSCLC = system: A549 NSCLC
ACHN renal = system: ACHN renal
BT-549 breast = system: BT-549 breast
CAKI-1 renal = system: CAKI-1 renal
CCRF-CEM leukemia = system: CCRF-CEM leukemia
COLO 205 colon = system: COLO 205 colon
DU-145 prostate = system: DU-145 prostate
EKVX NSCLC = system: EKVX NSCLC
HCC-2998 colon = system: HCC-2998 colon
HCT-116 colon = system: HCT-116 colon
HCT-15 colon = system: HCT-15 colon
HL-60(TB) leukemia = system: HL-60(TB) leukemia
HOP-62 NSCLC = system: HOP-62 NSCLC
HOP-92 NSCLC = system: HOP-92 NSCLC
HS 578T breast = system: HS 578T breast
HT29 colon = system: HT29 colon
IGROV1 ovarian = system: IGROV1 ovarian
K-562 leukemia = system: K-562 leukemia
KM12 colon = system: KM12 colon
LOX IMVI melanoma = system: LOX IMVI melanoma
M14 melanoma = system: M14 melanoma
MALME-3M melanoma = system: MALME-3M melanoma
MCF7 breast = system: MCF7 breast
MDA-MB-231 breast = system: MDA-MB-231 breast
MDA-MB-435 = system: MDA-MB-435
MDA-N = system: MDA-N
MOLT-4 leukemia = system: MOLT-4 leukemia
NCI-H226 lung = system: NCI-H226 lung
NCI-H23 lung = system: NCI-H23 lung
NCI-H460 lung = system: NCI-H460 lung
NCI-H522 lung = system: NCI-H522 lung
NCI/ADR-RES ovarian = system: NCI/ADR-RES ovarian
OVCAR-3 ovarian = system: OVCAR-3 ovarian
OVCAR-4 ovarian = system: OVCAR-4 ovarian
OVCAR-5 ovarian = system: OVCAR-5 ovarian
OVCAR-8 ovarian = system: OVCAR-8 ovarian
PC-3 prostate = system: PC-3 prostate
RPMI-8226 leukemia = system: RPMI-8226 leukemia
RXF 393 renal = system: RXF 393 renal
SF-268 CNS = system: SF-268 CNS
SF-295 CNS = system: SF-295 CNS
SF-539 CNS = system: SF-539 CNS
SK-MEL-2 melanoma = system: SK-MEL-2 melanoma
SK-MEL-28 melanoma = system: SK-MEL-28 melanoma
SK-MEL-5 melanoma = system: SK-MEL-5 melanoma
SK-OV-3 ovarian = system: SK-OV-3 ovarian
SN12C renal = system: SN12C renal
SNB-19 CNS = system: SNB-19 CNS
SNB-75 CNS = system: SNB-75 CNS
SR leukemia = system: SR leukemia
SW-620 colon = system: SW-620 colon
T-47D breast = system: T-47D breast
TK-10 renal = system: TK-10 renal
U251 CNS = system: U251 CNS
UACC-257 melanoma = system: UACC-257 melanoma
UACC-62 melanoma = system: UACC-62 melanoma
UO-31 renal = system: UO-31 renal

COC(=O)C1OC(O[C@H]2CC[C@]3(C)[C@H]4CC=C5[C@@H]6CC(C)(C)CC[C@]6(C(=O)OC6OCC(O)C(O)C6OC6OC(C)C(OC7OCC(O)C(O)C7O)C(O)C6O)[C@H](O)C[C@@]5(C)[C@]4(C)CC[C@H]3C2(C)C)C(O)C(O)C1O (stereo partly drawn)
TGI (786-0 renal): 19 µM and 21.8 µM
TGI (A498 renal): 3.55 µM and 3.85 µM
TGI (A549 NSCLC): 11.8 µM and 14.6 µM
TGI (ACHN renal): 14.6 µM and 14.9 µM
GI50 (BT-549 breast): 3.06 µM and 7.31 µM
TGI (BT-549 breast): 8.86 µM and 21.8 µM
TGI (CAKI-1 renal): 11.2 µM and 14.9 µM
GI50 (CCRF-CEM leukemia): > 68.4 µM and 13.5 µM
TGI (CCRF-CEM leukemia): > 100 µM
TGI (COLO 205 colon): 3.02 µM and 3.31 µM
TGI (DU-145 prostate): > 57.7 µM and 26.5 µM
TGI (EKVX NSCLC): 8.04 µM and 11.1 µM
TGI (HCC-2998 colon): 6.71 µM and 3.44 µM
TGI (HCT-116 colon): > 100 µM and 17.4 µM
TGI (HCT-15 colon): 42.8 µM and 27.5 µM
TGI (HL-60(TB) leukemia): 5.28 µM and 6.62 µM
TGI (HOP-62 NSCLC): 17.8 µM and 22.9 µM
TGI (HOP-92 NSCLC): 5.2 µM and 8.4 µM
TGI (HS 578T breast): 35.9 µM and 35.2 µM
TGI (HT29 colon): 9.7 µM and 15.3 µM
TGI (IGROV1 ovarian): > 80.4 µM and 26.8 µM
TGI (K-562 leukemia): > 100 µM
TGI (KM12 colon): 13.1 µM and 13 µM
TGI (LOX IMVI melanoma): 19.6 µM and 14.5 µM
TGI (M14 melanoma): 7.65 µM and 14.8 µM
GI50 (MALME-3M melanoma): 4.78 µM and 11.2 µM
TGI (MALME-3M melanoma): 16.2 µM and 23.6 µM
TGI (MCF7 breast): 10.3 µM and 4.43 µM
TGI (MDA-MB-231 breast): 7.48 µM and 4.39 µM
TGI (MDA-MB-435): 3.78 µM and 5.21 µM
TGI (MDA-N): 3.77 µM and 12.1 µM
GI50 (MOLT-4 leukemia): > 42.6 µM and 14.2 µM
TGI (MOLT-4 leukemia): > 100 µM
TGI (NCI-H226 lung): 13.9 µM and 24.8 µM
TGI (NCI-H23 lung): 4.76 µM and 6.24 µM
GI50 (NCI-H460 lung): 34 µM and 16.9 µM
TGI (NCI-H460 lung): > 100 µM and 33.4 µM
TGI (NCI-H522 lung): 6.84 µM and 5.14 µM
TGI (NCI/ADR-RES ovarian): 22.5 µM and 12.3 µM
TGI (OVCAR-3 ovarian): > 78.1 µM and 25 µM
GI50 (OVCAR-4 ovarian): 0.927 µM and 4.32 µM
TGI (OVCAR-4 ovarian): 6.7 µM and 16.5 µM
TGI (OVCAR-5 ovarian): 15.8 µM and 19.4 µM
GI50 (OVCAR-8 ovarian): 11.8 µM and 2.76 µM
TGI (OVCAR-8 ovarian): 26.8 µM and 8.47 µM
TGI (PC-3 prostate): 16.9 µM and 16.3 µM
TGI (RPMI-8226 leukemia): > 100 µM and 21.3 µM
TGI (RXF 393 renal): 29 µM and 31.2 µM
TGI (SF-268 CNS): 22.4 µM and 23.2 µM
TGI (SF-295 CNS): 13.7 µM and 14.9 µM
GI50 (SF-539 CNS): > 100 µM and 19 µM
TGI (SF-539 CNS): > 100 µM and 37.5 µM
TGI (SK-MEL-2 melanoma): 7.83 µM and 7.96 µM
TGI (SK-MEL-28 melanoma): 3.57 µM and 4.63 µM
TGI (SK-MEL-5 melanoma): 19.4 µM and 25.8 µM
TGI (SK-OV-3 ovarian): 23.5 µM and 26.3 µM
TGI (SN12C renal): 3.62 µM and 3.7 µM
TGI (SNB-19 CNS): 17.5 µM and 21.9 µM
TGI (SNB-75 CNS): 18.5 µM and 20.9 µM
TGI (SR leukemia): > 100 µM and 13.4 µM
TGI (SW-620 colon): > 57 µM and 27.2 µM
TGI (T-47D breast): > 100 µM and 27.2 µM
TGI (TK-10 renal): 21.3 µM and 21.5 µM
TGI (U251 CNS): 17.7 µM and 19.8 µM
TGI (UACC-257 melanoma): 8.87 µM and 18.6 µM
GI50 (UACC-62 melanoma): 2.89 µM and 7.04 µM
TGI (UACC-62 melanoma): 8.55 µM and 21.7 µM
TGI (UO-31 renal): 3.54 µM and 5.18 µM
